Source: patent US9815851B2, “Pyrrolo carboxamides as modulators of orphan nuclear receptor RAR-related orphan receptor-gamma (RORγ, NR1F3) activity and for the treatment of chronic inflammatory and autoimmune diseases” (PHENEX PHARMACEUTICALS AG, priority 2011, dated 2017)
Where two headings read alike, the source gives them in different places.

How the values were obtained:
RORγ = target: T1, RORγ (UniProt P51449); test: RORγ Gal4 Reporter Gene Assay in 293T cells (firefly and renilla luciferase); assay type: cell-based, human
T1 sequence (P51449 1-518): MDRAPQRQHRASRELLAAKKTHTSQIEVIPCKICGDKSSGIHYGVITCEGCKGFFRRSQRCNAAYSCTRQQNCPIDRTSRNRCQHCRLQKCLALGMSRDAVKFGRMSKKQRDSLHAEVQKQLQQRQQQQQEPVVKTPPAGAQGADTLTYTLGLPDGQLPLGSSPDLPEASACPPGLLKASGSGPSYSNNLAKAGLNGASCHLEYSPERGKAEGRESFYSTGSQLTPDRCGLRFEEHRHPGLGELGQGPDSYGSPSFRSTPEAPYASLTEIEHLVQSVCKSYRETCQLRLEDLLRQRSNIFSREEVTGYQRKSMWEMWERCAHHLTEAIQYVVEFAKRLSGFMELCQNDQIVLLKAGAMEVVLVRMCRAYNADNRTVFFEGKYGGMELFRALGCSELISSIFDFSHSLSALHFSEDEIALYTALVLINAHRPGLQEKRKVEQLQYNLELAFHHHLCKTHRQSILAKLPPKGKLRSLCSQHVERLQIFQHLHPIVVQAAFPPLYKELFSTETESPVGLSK

[1] = target: T2, RORγ ligand binding domain (LBD) (Homo sapiens, UniProt P51449); test: TR-FRET Activity Assay (ligand sensing, RORγ-LBD / coactivator peptide interaction, LANCE); assay type: biochemical
T2 construct: made in house; host or cells: E. coli BL-21 (BL3), vector pDEST15
T2 sequence (P51449 269-508 limits assumed): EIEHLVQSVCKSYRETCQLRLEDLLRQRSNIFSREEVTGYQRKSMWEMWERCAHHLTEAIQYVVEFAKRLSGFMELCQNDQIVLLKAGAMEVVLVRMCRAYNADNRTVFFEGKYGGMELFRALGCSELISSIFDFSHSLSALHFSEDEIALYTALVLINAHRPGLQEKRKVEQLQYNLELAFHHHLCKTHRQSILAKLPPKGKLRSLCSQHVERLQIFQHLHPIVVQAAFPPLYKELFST

[2] = second value of the cell, Gal4 reporter gene assay in 293T cells, firefly luciferase
[3] = third value of the cell, Gal4 reporter gene assay in 293T cells, renilla normalised luciferase
[4] = first value of the cell FRET/FF/REN, TR-FRET activity assay, read-out: pIC50 (FRET) (converted)

Row | Structure (SMILES) | pIC50 (FF) (RORγ; [2]) | pIC50 (REN) (RORγ; [3]) | IC50 [1, 4] [nM] | pIC50 (FF) (RORγ) | pIC50 (REN) (RORγ) | IC50 [1] [nM]
1 | CCC(C)(C)NS(=O)(=O)c1ccc(-c2cc(C(=O)NC3CCOCC3)c(C)n2CC2CCCC2)cc1C(F)(F)F [17/216] | 7.8 | 7.8 | 200 | – | – | –
2 | COC(=O)C(C)(C)CCNC(=O)c1cc(-c2cc(C(C)(C)C)cc(C3(C)CC3)c2)n(CC2CCCCC2)c1F [20/4] | 6.9 | 6.9 | 200 | – | – | –
3 | COC(C)(C)CNC(=O)c1cc(-c2cc(C(C)(C)C)cc(C3(C)CC3)c2)n(CC2CCCCC2)c1C [17/68] | – | – | – | 6.8/7.4/7.5 | 6.8/7.4/7.5 | 158
4 | CNC(=O)C(C)(C)CCNC(=O)c1cc(-c2ccc(S(=O)(=O)NC(C)(C)C)c(C(F)(F)F)c2)n(CC2CCCCC2)c1C [17/136] | 6.6 | 6.7 | 794 | – | – | –
5 | Cc1c(C(=O)NC2CCOCC2)cc(-c2ccc(S(=O)(=O)N3CCCC(C(F)(F)F)C3)c(C(C)(C)C)c2)n1CC1CCCCC1 (stereo not drawn) [17/102] | – | – | – | 6.6/6.8/6.9 | 6.6/6.8/6.9 | 251
6 | Cc1c(C(=O)N[C@H]2C[C@H](C(=O)O)C2)cc(-c2ccc(S(=O)(=O)NC(C)(C)C)c3sccc23)n1CC1CCCCC1 [17/184] | 6.9 | 7.1 | 794 | – | – | –
7 | Cc1c(C(=O)NCCc2noc(=O)[nH]2)cc(-c2cc(C(C)(C)C)cc(C3(C)CC3)c2)n1CC1CCCCC1 [17/178] | 7.9 | 7.9 | 794 | – | – | –
8 | Cc1c(C(=O)NCC(C)(C)C(=O)O)cc(-c2cc(C(C)(C)C)nc(C(C)(C)C)n2)n1CC1CCCCC1 [17/353] | 6.8 | 6.8 | 2000 | – | – | –
9 | COCCS(=O)(=O)NC(C)(C)CNC(=O)c1cc(-c2cc(C(C)(C)C)c3c(c2)C2(CCO3)CC2)n(CC2CCCCC2)c1C [17/32] | – | – | – | 6.7/7.2/7.2 | 6.7/7.2/7.2 | 200
10 | Cc1c(C(=O)NC2CCOCC2)cc(C2=NN(S(=O)(=O)c3ccccc3)C3(CCCCC3)C2)n1CC1CCCCC1 [24/1] | 6.3 | 6.4 | 12600 | – | – | –
11 | Cc1c(C(=O)NCC2CCOCC2)cc(-c2cc(C(C)(C)C)c3c(c2)C2(CCO3)CC2)n1CC1CCCCC1 [1/94] | 7.4 | 7.3 | 501 | – | – | –
12 | Cc1c(C(=O)NC2CS(=O)(=O)C2)cc(-c2ccc(S(=O)(=O)NC(C)(C)C)c(C(C)(C)C)c2)n1CC1CCCCC1 [17/91] | – | – | – | 6.2/7.1/7.0 | 6.2/7.1/7.0 | 631
13 | Cc1c(C(=O)NCC(O)C(F)(F)F)cc(-c2cc(C(C)(C)C)c3c(c2)C2(CCO3)CC2)n1CC1CCCCC1 (stereo not drawn) [17/23] | 6.6 | 6.6 | 1260 | – | – | –
14 | Cc1c(C(=O)N2CC(CC(=O)O)C2)cc(-c2ccc(S(=O)(=O)NC(C)(C)C)c(C(F)(F)F)c2)n1CC1CCCCC1 [17/179] | 6.1 | 6.1 | 398 | – | – | –
15 | Cc1c(C(=O)NCCO)cc(-c2cc(C(C)(C)C)cc(C(C)(C)C)c2)n1CC1CCCCC1 [1/54] | – | – | – | 6.4/6.3/6.4 | 6.4/6.3/6.4 | 398
16 | Cc1c(C(=O)NC2CCOCC2)cc(-c2ccc(S(=O)(=O)NC(C)(C)C)c(C(F)(F)F)c2Cl)n1CC1CCCCC1 [17/288] | 7.3 | 7.3 | 398 | – | – | –
17 | Cc1c(C(=O)NCC(C)(C)CC(N)=O)cc(-c2cc(C(C)(C)C)c3c(c2)C2(CCO3)CC2)n1CC1CCCCC1 [17/20] | 7.1 | 7.1 | 398 | – | – | –
18 | Cc1c(C(=O)NCC(C)(C)C(N)=O)cc(-c2ccc(S(=O)(=O)NC(C)(C)C)c(C(C)(C)C)c2)n1CC1CCCCC1 [1/125] | 7.4 | 7.4 | 794 | – | – | –
